Measured values taken from US8058276B2, “Heterobicyclic carboxamides as inhibitors for kinases” (Novartis AG, priority 2006, dated 2011).

SMILES | melting point
Nc1nccc(Oc2ccc3c(C(=O)Nc4ccc(F)c(C(F)(F)F)c4)nsc3c2)n1 [Example 6, 6-(2-Amino-pyrimidin-4-yloxy)-benzo[d]isothiazole-3-carboxylic acid (4-fluoro-3-trifluoromethyl-phenyl)-amide] | 237 to 239 °C
CN1CCN(Cc2ccc(NC(=O)c3nsc4cc(Oc5ccnc(N)n5)ccc34)cc2C(F)(F)F)CC1 [Example 7, 6-(2-Amino-pyrimidin-4-yloxy)-benzo[d]isothiazole-3-carboxylic acid [4-(4-methyl-piperazin-1-ylmethyl)-3-trifluoromethyl-phenyl]-amide] | 215 to 217 °C
Nc1nccc(Oc2ccc3c(C(=O)Nc4cccc(C(F)(F)F)c4)cnn3c2)n1 [Example 15, 6-(2-Amino-pyrimidin-4-yloxy)-pyrazolo[1,5-a]pyridine-3-carboxylic acid (3-trifluoromethyl-phenyl)-amide] | 102 to 104 °C
O=C(Nc1ccc(F)c(C(F)(F)F)c1)c1csc2cc(Oc3cc(CO)ncn3)ccc12 [Example 19, 6-(6-Hydroxymethyl-pyrimidin-4-yloxy)-benzo[b]thiophene-3-carboxylic acid (4-fluoro-3-trifluoromethyl-phenyl)-amide] | 138 to 140 °C
O=C(Nc1cccc(C(F)(F)F)c1)c1coc2cc(Oc3cc(CO)ncn3)ccc12 [Example 22, 6-(6-Hydroxymethyl-pyrimidin-4-yloxy)-benzofuran-3-carboxylic acid (3-trifluoromethyl-phenyl)-amide] | 181 to 182 °C
